From the NIST ThermoML archive (doi:10.1016/j.jct.2012.12.018)

Test: xn = mol fraction of the nth substance listed
Conditions: Gas, Buoyancy - hydrostatic balance with magnetic suspension - one sinker, x2 = 0.8977

N#N [nitrogen] + C
Conditions	mass density [kg/m3]
170.59 K, 761.2 kPa	10.0103
170.59 K, 1037.8 kPa	14.0966
170.59 K, 1287.8 kPa	18.0625
170.6 K, 455.1 kPa	5.7907
187.47 K, 422.8 kPa	4.8286
187.47 K, 722.4 kPa	8.4419
187.47 K, 1064.8 kPa	12.7954
187.47 K, 1349.6 kPa	16.6251
217.54 K, 441.1 kPa	4.2954
217.54 K, 1298.9 kPa	13.1778
217.54 K, 1475.3 kPa	15.0994
217.55 K, 724.1 kPa	7.1436
217.55 K, 1017.9 kPa	10.1853
240.48 K, 975.3 kPa	8.695
240.48 K, 1256.7 kPa	11.3113
240.48 K, 1594.5 kPa	14.5212
240.49 K, 438.2 kPa	3.8367
240.49 K, 715.8 kPa	6.3263
261 K, 145.7 kPa	1.1633
261 K, 436.6 kPa	3.5148
261 K, 729 kPa	5.9093
261 K, 1021.7 kPa	8.3427
270.05 K, 133.3 kPa	1.0285
270.05 K, 424.6 kPa	3.2976
270.05 K, 731.4 kPa	5.7195
270.05 K, 1025.7 kPa	8.0721
270.05 K, 1195.4 kPa	9.445
